Experimental data from US9784747B2, “Method and kit for analyzing protein-protein interaction using nanocluster formation” (KOREA ADVANCED INSTITUTE OF SCIENCE AND TECHNOLOGY, priority 2011, dated 2017).

Test system: interaction between CaMKIIα and calmodulin
Assay: Real-time observation of calcium-dependent nanocluster formation (CaMKIIα-CaM interaction) in cotransfected HeLa cells
Type: cell-based
Conditions: ionomycin 1 mM; 80 seconds after treatment; HeLa cells cotransfected with mCherry-CaMKII[296-315]-AD and CaM-ECFP-FT; fluorescence distributed again as time passes
Method: To investigate whether the system of the present disclosure can be used for real-time observation of an intermolecular interaction regulated by calcium through a calcium dependent nanocluster formation, the present inventors cotransfected HeLa cells with the mCherry-CaMKII[296-315]-AD construct constructed in example 1-18 and the CaM-ECFP-FT construct constructed in example 1-19 through the method described above. Thereafter, the cells were treated with 1 mM of ionomycin as ionophore which facilitates calcium ion penetration.
Then, fluorescence was distributed again as time passes.

C[C@H](CCC(=O)O)C[C@H](C)C[C@H](C)C(=O)/C=C(\O)[C@H](C)C[C@H](C)C/C=C/[C@@H](C)[C@@H](O)[C@@H](C)[C@@H](O)C[C@@H]1CC[C@@](C)([C@H]2CC[C@@](C)([C@@H](C)O)O2)O1 [ionomycin]
distribution and intensity of fluorescence (nanocluster formation): a strong fluorescence dot appeared in cytoplasm due to a nanocluster formation
